The target in data set [1] is integrin proteins on the cell surface.
The subject of data set [2] is human rotavirus strain Wa. Format: cell-based. Particulars: for anti-rotavirus activity (in words): statement on Table 6. The procedure: To cultivate the rotavirus, the cell line MA-104 (monkey foetal kidney cells), obtained from the Cell Substrata Centre of the Experimental Animal Disease Institute, Brescia, Italy, was used. This cell line is cultured as a monolayer in EAGLE minimum essential medium (MEM) containing 5% heat-inactivated (56° C. for 30 minutes) bovine foetal serum (Sigma) and is maintained at 37° C. at 5% CO2.
For the in vitro infection assay, the cell line MA-104 and the human rotavirus strain Wa (TC adapted), obtained from the American Type Culture Collection (ATCC VR-2018) and propagated in MA-104 cells, were used.
To set up the assay, cells were seeded in 96-well plates and, once 80% confluence was achieved, were pre-treated for 1 hour with increasing concentrations of RGD- and/or DGE-containing peptides or their mutated counterparts and incubated at 37° C. The peptides containing the RGD or the DGE motif were used either alone or in combination. Cells were then washed with medium and infected with the pre-activated virus (5 μg/ml tripsin for 30 minutes at 37° C.) in the presence of the peptides. After a 1 hour incubation cells were washed with medium and incubated in medium containing 0.5 μg/ml tripsin and the peptides at 37° C. for 20 hours. The infected cells were visualised through an immunoperoxidase assay, using murine monoclonal antibodies specific for the capsidic protein VP6 of the rotavirus (Abcam) and the kit “UltraTech HRP Streptavidin-Biotin detection system” (Beckman Coulter). The infected cells were counted by observation under the optical microscope and the percentage of infection calculated by comparison of treated with non-treated cells.

Data set [3] deals with integrin proteins on the cell surface. The source holds these as a separate data set.
The subject of data set [4] is simian rotavirus strain SA11. Particulars: MA104 cells, dose-dependent; Graham et al.; cited from earlier work.
Data set [5] concerns the target T1, modified porcine trypsin (Sus scrofa, UniProt P00761).
T1 construct: purchased Promega
Format: in vitro ADME. The procedure:
The peptide SEQ ID NO: 1 was dissolved in ultra pure H2O to obtain a final concentration of 10 mg/ml. Dilutions from 1:10 to 1:10,000 were obtained. All concentrations were tested by MALDI-TOF analyses. 0.5 μl of samples from dilutions 1:10, 1:100, 1:1,000, 1:10,000 were spotted onto a MALDI target plate and left to dry at RT. 0.5 μl of α-cyano-4-hydroxy-cinnamic acid in 30% acetonitrile, 0.1% TFA (HCCA matrix solution) were added to each sample and left to dry under vacuum. Spectra were obtained using a Bruker Ultraflex II MALDI-TOF/TOF mass spectrometer (Bruker Daltonics) in reflectron and positive ion mode. External calibration was performed using “Peptide calibration standard” from Bruker Daltonics.
To evaluate the digestibility of the SEQ ID NO: 1 peptide with trypsin, […] of a 0.2 μg/μl solution (25 mM NH4HCO3) of modified porcine trypsin (Promega) were added to 150 μl of the 10 mg/ml peptide solution ((25 mM NH4HCO3) enzyme to protein ratio 1:100). The sample was incubated at 37° C. and 0.5 μl were collected at different time of digestion: 5′, 15′, 30′, 60′ 90′ 120′. Each samples was spotted on MALDI target and spectra were collected as already described in Example 4a. In FIG. 5 the time course experiment evaluated by MALDI TOF analyses is shown.

Data set [6] concerns rotavirus. The conditions noted are these: purified lactadherin; Kvistgaard et al., 2004; cited from earlier work.
Data set [7] has as its target integrin proteins on the cell surface. The source holds these as a separate data set.
For data set [8] the target is unchanged. This is another data set of the same source.
For data set [9] the target is unchanged. This is another data set of the same source.

This is an account of results in US8673849B2, “Lactadherin-derived peptides as antiviral agents” (priority 2010, dated 2014).

Where a SMILES comes first, the peptide text is derived from it. Where no end group is shown, it is not given here.

T1 sequence (P00761 9-231): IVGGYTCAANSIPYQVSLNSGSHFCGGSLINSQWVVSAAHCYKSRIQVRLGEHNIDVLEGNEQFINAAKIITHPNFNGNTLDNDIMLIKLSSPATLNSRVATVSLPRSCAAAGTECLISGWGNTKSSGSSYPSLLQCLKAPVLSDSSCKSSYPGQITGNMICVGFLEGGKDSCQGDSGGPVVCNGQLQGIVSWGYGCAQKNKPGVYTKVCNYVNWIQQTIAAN

With “pRGE: S-H-R-G-E-V-F-T (RGD -> RGE mutation) (peptide)”, in [1], the IC50 (µM), inhibition of human rotavirus Wa infection of MA-104 cells is 600 µM and the IC50 (µg/ml), inhibition of human rotavirus Wa infection of MA-104 cells was 558 µg/mL.
Regarding “SHRGEVFT [pRGE, S-H-R-G-E-V-F-T, reference compound]”, in [2], the 50% inhibitory concentration (IC50) amounted to 600 µM and the “IC50 (μg/ml)” value was 558.5 µg/mL.
In turn, “Dendrimeric peptide of formula (VII): [[(HRGDVFT)2-Lys][(NDGECHV)2-Lys]]-Lys-β-Ala-NH2” came in with an IC50, inhibition of rotavirus infection, infected cells counted by immunoperoxidase in [3] of 3.6 µM.
Consider QNDGECHVIDDSHRGDVFSQ [SEQ ID NO: 8], for which, in data set [2], the 50% inhibitory concentration (IC50) came out at 6.35 µM, the “IC50 (μg/ml)” value is 14.43 µg/mL and the “anti-rotavirus activity (in words)” value is “show antiviral activity”.
Taken in the same sequence, the figures for NNDGECHVIDDSHRGDVFTQ [SEQ ID NO: 7] were 13.5 µM, 30.51 µg/mL and “show antiviral activity”.
Consider `C[C@H](NC(=O)[C@H](CCC(=O)O)NC(=O)CNC(=O)[C@@H](N)CC(=O)O)C(=O)O` [DGEA, D-G-E-A, reference compound] (H-DGEA-OH; N-terminus and C-terminus assumed), for which, in data set [2], the IC50 amounted to 311 µM and the “IC50 (μg/ml)” value was found to be 121.4 µg/mL. For the same molecule, in data set [4], the “inhibition of rotavirus binding to and infection of cells (in words)” value is given as “inhibit”.
For GPRP, the “inhibition of rotavirus binding to and infection of cells (in words)” value in data set [4] is given as “inhibit”.
In the case of “QNDGECHV [SEQ ID NO: 3, Q-N-D-G-E-C-H-V]”, in data set [2], the IC50 was 17.3 µM and the “IC50 (μg/ml)” value came to 15.6 µg/mL.
Consider “EVRGDVFP [Hu-RGD, E-V-R-G-D-V-F-P, reference compound]”, for which, in data set [2], the IC50 stood at 104 µM and the “IC50 (μg/ml)” value was 95.3 µg/mL.
Take QNDGECHVIDDSDRGDVFTQ [SEQ ID NO: 11]: in data set [2], the IC50 worked out at 10.5 µM, the “IC50 (μg/ml)” value stood at 23.90 µg/mL and the “anti-rotavirus activity (in words)” value was “maintains its anti-rotavirus activity”.
With “SHRGDVFI [Bo-RGD, S-H-R-G-D-V-F-I, reference compound]”, in [2], the IC50 was determined as 395 µM and the “IC50 (μg/ml)” value was 367.1 µg/mL.
With QNAGECHVIDDSHRGEVFTQ [SEQ ID NO: 10], in data set [2], the half-maximal inhibitory concentration (IC50) is > 220 µM, the “IC50 (μg/ml)” value was >500 µg/mL and the “anti-rotavirus activity (in words)” value is “completely lost any anti-rotavirus activity”.
In data set [1], “pAGE: Q-N-A-G-E-C-H-V (DGE -> AGE mutation) (peptide)” had an IC50 (µM), inhibition of human rotavirus Wa infection of MA-104 cells of 257 µM and an IC50 (µg/ml), inhibition of human rotavirus Wa infection of MA-104 cells of 220 µg/mL.
Consider “QNDGECHVIDDSHRGDVFTQ [SEQ ID NO: 1, QNDGECHVIDDSHRGDVFTQ]”, for which the “integrity of the peptide on trypsin digestion” value in [5] is “didn't affect the integrity”. For the same molecule, in [2], the concentration for half-maximal inhibition (IC50) is 1.72 µM and the “IC50 (μg/ml)” value came out at 3.9 µg/mL.
For the molecule “SHRGDVFT [SEQ ID NO: 5, S-H-R-G-D-V-F-T]”, in [2], the half-maximal inhibitory concentration (IC50) came to 111 µM and the “IC50 (μg/ml)” value was 101.5 µg/mL.
As to “QNAGECHV [pAGE, Q-N-A-G-E-C-H-V, reference compound]”, in data set [2], the IC50 was found to be 257 µM and the “IC50 (μg/ml)” value came to 219.6 µg/mL.
As to QNDGECHVIDDSHRGDVFQT [SEQ ID NO: 9], in [2], the half-inhibitory concentration (IC50) was 4.17 µM, the “IC50 (μg/ml)” value turned out to be 9.469 µg/mL and the “anti-rotavirus activity (in words)” value is listed as “show antiviral activity”.
For the molecule Control peptide D-G-E-A (Graham et al.), in data set [1], the IC50 (µM), inhibition of human rotavirus Wa infection of MA-104 cells is 311 µM and the IC50 (µg/ml), inhibition of human rotavirus Wa infection of MA-104 cells was 121 µg/mL.

B1: human lactadherin: purified human lactadherin, glycoprotein of milk fat globule membranes, 387 amino acids (protein, UniProt Q08431 24-387, looked up)
Lactadherin: LDICSKNPCHNGGLCEEISQEVRGDVFPSYTCTCLKGYAGNHCETKCVEPLGLENGNIANSQIAASSVRVTFLGLQHWVPELARLNRAGMVNAWTPSSNDDNPWIQVNLLRRMWVTGVVTQGASRLASHEYLKAFKVAYSLNGHEFDFIHDVNKKHKEFVGNWNKNAVHVNLFETPVEAQYVRLYPTSCHTACTLRFELLGCELNGCANPLGLKNNSIPDKQITASSSYKTWGLHLFSWNPSYARLDKQGNFNAWVAGSYGNDQWLQVDLGSSKEVTGIITQGARNFGSVQFVASYKVAYSNDSANWTEYQDPRTGSSKIFPGNWDNHSHKKNLFETPILARYVRILPVAWHNRIALRLELLGC
Turning to B1, in [6], the “activity against rotavirus infection (in words)” value was “active against rotavirus infection”.

B2: Hu-RGD: E-V-R-G-D-V-F-P (peptide)
peptide: EVRGDVFP
modifications: not fully specified
Regarding B2, in data set [1], the IC50 (µM), inhibition of human rotavirus Wa infection of MA-104 cells turned out to be 104 µM and the IC50 (µg/ml), inhibition of human rotavirus Wa infection of MA-104 cells stood at 95.3 µg/mL.

B3: Bo-RGD: S-H-R-G-D-V-F-I (peptide)
peptide: SHRGDVFI
modifications: not fully specified
In data set [1], B3 returned an IC50 (µM), inhibition of human rotavirus Wa infection of MA-104 cells of 395 µM and an IC50 (µg/ml), inhibition of human rotavirus Wa infection of MA-104 cells of 367 µg/mL.

B4: bovine lactadherin: bovine lactadherin, glycoprotein of milk fat globule membranes, 427 amino acid residues (protein, UniProt Q95114 19-427, looked up)
Lactadherin: ASGDFCDSSLCLHGGTCLLNEDRTPPFYCLCPEGFTGLLCNETEHGPCFPNPCHNDAECQVTDDSHRGDVFIQYICKCPLGYVGIHCETTCTSPLGMQTGAIADSQISASSMHLGFMGLQRWAPELARLHQTGIVNAWTSGNYDKNPWIQVNLMRKMWVTGVVTQGASRAGSAEYLKTFKVAYSTDGRQFQFIQVAGRSGDKIFIGNVNNSGLKINLFDTPLETQYVRLVPIICHRGCTLRFELLGCELNGCTEPLGLKDNTIPNKQITASSYYKTWGLSAFSWFPYYARLDNQGKFNAWTAQTNSASEWLQIDLGSQKRVTGIITQGARDFGHIQYVAAYRVAYGDDGVTWTEYKDPGASESKIFPGNMDNNSHKKNIFETPFQARFVRIQPVAWHNRITLRVELLGC
On to B4, for which the “activity against rotavirus infection (in words)” value in [6] is recorded as “does not possess this activity”.

B5: peptidic compound of SEQ ID NO: 3 (Q-N-D-G-E-C-H-V) (peptide)
peptide: QNDGECHV
modifications: not fully specified
In data set [1], B5 displayed an IC50 (µM), inhibition of human rotavirus Wa infection of MA-104 cells of 17.3 µM and an IC50 (µg/ml), inhibition of human rotavirus Wa infection of MA-104 cells of 15.6 µg/mL. The molecule also had a % of inhibition of rotavirus infection at 100 µg/ml (96.6 µM), one representative experiment (% of inhibition) in data set [7] of 52.7.

B6: peptidic compound of SEQ ID NO: 1 (QNDGECHVIDDSHRGDVFTQ) (peptide)
peptide: QNDGECHVIDDSHRGDVFTQ
modifications: not fully specified
B6: in [1], the IC50 (µM), inhibition of human rotavirus Wa infection of MA-104 cells was determined as 1.72 µM and the IC50 (µg/ml), inhibition of human rotavirus Wa infection of MA-104 cells stood at 3.9 µg/mL. The molecule also displayed a % of inhibition of rotavirus infection at 100 µg/ml (36.6 µM), one representative experiment (% of inhibition) in [8] of 61.

B7: peptidic compound of SEQ ID NO: 5 (S-H-R-G-D-V-F-T) (peptide)
peptide: SHRGDVFT
modifications: not fully specified
As for B7, in data set [1], the IC50 (µM), inhibition of human rotavirus Wa infection of MA-104 cells, infected cells counted by immunoperoxidase was determined as 111 µM and the IC50 (µg/ml), inhibition of human rotavirus Wa infection of MA-104 cells is 102 µg/mL. The molecule further displayed a % of inhibition of rotavirus infection at 100 µg/ml (93.3 µM), one representative experiment (% of inhibition) in [9] of 46.9.

As usually defined, the IC50 is the concentration that gives 50% inhibition.
